# Experiments:
# [1] = MTT cytotoxicity assay on Vero cells; format: cell-based; settings: African green monkey, read-out: CC50, cytotoxicity effect against Vero cells
# Experimental: C6/36 mosquito cell line derived from Aedes albopictus and Vero cell line were used. Both cell lines were maintained and propagated in Eagle's Minimum Essential Medium (EMEM) containing 10% fetal bovine serum. Cultured C6/36 and Vero cells were incubated at 28° C. and 37° C., respectively in 5% CO2 humidified chamber. At the time of virus propagation, serum concentration was reduced to 2%. Dengue virus type-2 (DENV-2) New Guinea C strain (NGC) was propagated using C6/36 cell line and harvested after CPE presentation on day seven post infection. After titration, viral stock was stored at -70° C. MTT (Dimethyl thiazolyl diphenyl tetrazolium salt) assay was performed to determine cytotoxicity of quercetin on Vero cells.
# [2] = system: DENV-2 (NGC strain); test: Anti-adsorption activity against DENV-2 (FFURA, qRT-PCR); format: cell-based, Dengue virus type-2; settings: added to cells simultaneously during infection, FFURA and qRT-PCR
# Experimental: In another experiment, Vero cells at ˜80% confluency were infected with 200 FFU of DENV-2 in the presence or absence of different concentrations of quercetin. The microplate was kept at 37° C. for one hour for virus adsorption. Then the cells were washed twice using sterile PBS and incubated for two hours at 37° C. Cells were then incubated for 4 days and foci formed was counted and DENV RNA copy number to indicate inhibition of virus adsorption was quantified using quantitative RT-PCR.
# (§1) In general, antiviral activity of quercein was evaluated by measuring the reduction in number of viral foci. Confluent Vero cell monolayers prepared in 24 wells cell culture microplates were used. […] The number of DENV-2 foci formed was counted under a stereomicroscope and the virus titer was expressed as Foci-Forming-Unit (FFU). The percentage of viral foci reduction (RF %) compared to untreated controls was calculated as follows: […]
# (§2) Reduction in the number of viral foci was further verified using quantitative real time polymerase chain reaction (qRT-PCR) amplification.
# (§3) Quantitative RT-PCR was performed to determine the effect of the compound on DENV replication by quantifying DENV-2 genomic RNA copy number. […] For absolute quantitation of the viral RNA, a standard curve was established with a serially diluted RNA extracted from DENV-2 stock with a known titer.
# [3] = system: DENV-2 (NGC strain); test: Continuous treatment antiviral activity against DENV-2 (FFURA, qRT-PCR); format: cell-based, Dengue virus type-2
# Experimental: In separate experiment, to determine the antiviral activities of quercetin when used continuously, different concentrations of quercetin were added to the Vero cell monolayer five hours before virus infection. After five hours of pre-infection treatment, the cells were washed twice with sterile PBS and then 200 FFU of DENV-2 was inoculated to the cells and incubated at 37° C. for one hour. Infected cells were continuously incubated with the respective concentration of quercetin for four days post infection. Viral foci formed were counted and DENV RNA copy number to indicate inhibition of virus replication was quantified using quantitative RT-PCR.
# (§4) In general, antiviral activity of quercein was evaluated by measuring the reduction in number of viral foci. Confluent Vero cell monolayers prepared in 24 wells cell culture microplates were used. Then the infected cells treated using the different treatment regime was overlaid with 1.5% of carboxy methyl cellulose (CMC) (Sigma-Aldrich, St. Louis, Mo., USA) containing EMEM. Viral foci were visualized using peroxidase-based foci staining assay four days post infection. The number of DENV-2 foci formed was counted under a stereomicroscope and the virus titer was expressed as Foci-Forming-Unit (FFU). The percentage of viral foci reduction (RF %) compared to untreated controls was calculated as follows: […]
# (§5) where, C is the mean of the number of foci for negative control well (without compound) and T is the mean of the number of foci in treated wells.
# as §2
# (§6) Quantitative RT-PCR was performed to determine the effect of the compound on DENV replication by quantifying DENV-2 genomic RNA copy number. Briefly, intracellular and extracellular DENV-2 RNAs were harvested from the DENV-infected Vero cells. Viral RNA was extracted using two types of RNA extraction kits (QlAamp Viral RNA mini kit and RNeasy mini kit) (Qiagen, Hilden, Germany). Quantitative RT-PCR assay was performed by adding 1 µl of extracted DENV RNA to the SensiMix SYBR green reagent (Quantace, Watford, United Kingdom) which contained 7.4 μl ddH2O, 10 μl 2× SensiMix One-Step, 0.4 μl 50× SYBR Green solution, 10 units of RNAse Inhibitor, 50 pmol of forward (DNF) and also reverse (D2R) primers. All samples were assayed in triplicate. […] For absolute quantitation of the viral RNA, a standard curve was established with a serially diluted RNA extracted from DENV-2 stock with a known titer.
# [4] = system: DENV-2 (NGC strain); test: Direct virucidal effect against DENV-2 (FFURA, qRT-PCR); format: cell-based, Dengue virus type-2
# Experimental: Direct virucidal effect of quercetin was investigated by incubating DENV-2 suspension containing 200 FFU with an equal volume of the different concentrations of quercetin for two hours at 37° C. Then, Vero cells were infected with the treated viral suspension in triplicates. At one hour adsorption at 37° C., cells were washed twice with PBS in order to remove unadsorbed viruses. The microplate was incubated at 37° C. for four days. Viral foci formed were counted and DENV RNA copy number to indicate direct virucidal effects was quantified using quantitative RT-PCR.
# as §1, with “foci.” for “foci. Confluent Vero cell monolayers prepared in 24 wells cell culture microplates were used.”
# as §2, §3
# [5] = system: DENV-2 (NGC strain); test: Post-adsorption antiviral activity against intracellular replication of DENV-2 (FFURA, qRT-PCR); format: cell-based, Dengue virus type-2
# Experimental: Post-adsorption antiviral activity of quercetin against intracellular replication of DENV-2 was performed by inoculating 200 FFU of virus to each well containing monolayer of Vero cells. After adsorption of virus to the cells for one hour at 37° C., the cells were washed with PBS to remove the unadsorped viruses. Then, different concentrations of quercetin were added to the cells followed by four days incubation at 37° C. Viral foci formed were counted and DENV RNA copy number to indicate inhibition of virus replication was quantified using quantitative RT-PCR.
# as §4, §5, §2
# as §6, with “triplicate. Amplification was performed using the DNA Engine Opticon system (MJ Research/Bio-Rad, Hercules, Calif.) with the following cycling conditions: reverse transcription at 50° C. for 30 min, initial denaturation at 95° C. for 10 min, followed by 45 cycles of 95° C. for 15 sec, 59° C. for 30 sec and 72° C. for 30 sec.” for “triplicate.”
smiles,measurement,setting,value
"O=c1c(O)c(-c2ccc(O)c(O)c2)oc2cc(O)cc(O)c12 [quercetin, 2-(3,4-dihydroxyphenyl)-3,5,7-trihydroxy-4H-1-benzopyran-4-one]",CC50,[1],252.6 ± 0.17 µg/mL
same,anti-adsorption activity against DENV-2,[2],~5%
same,decrease of the number of DENV-2 foci,"[3]; 50 μg/mL quercetin, continuous treatment of Vero cells, vs non-treated cells",70%±1.5
same,IC50,"[3]; Dengue virus, DENV2, continuous treatment from 5 hours before infection up to 4 days post-infection, Vero cells, FFURA, read-out: IC50, anti-dengue activity",28.9 µg/mL
same,SI value,[3]; continuous treatment,8.74
same,decrease of DENV-2 RNA production,"[3]; continuous treatment, qRT-PCR",more than 75.7%±1.57
same,decrease in copy number of DENV-2 RNA following direct treatment,"[4]; different concentrations of compound, qRT-PCR",no significant decrease
same,direct virucidal activity against DENV-2,"[4]; virus incubated with compound two hours at 37° C., foci",no significant direct virucidal activity
same,decrease of DENV-2 specific RNA production,"[5]; 50 μg/mL quercetin, post-adsorption, qRT-PCR, vs non-treated infected cells",more than 67%±1
same,appearance of viral foci in treated cells,"[5]; 50 μg/ml quercetin, foci staining, vs untreated dengue infected cells","small, less intensely stained and more diffused"
same,IC50,"[5]; Dengue virus, DENV2, added post viral adsorption, Vero cells, FFURA",35.7 µg/mL
same,SI value,[5]; post-adsorption assay,7.07

# Source: US20150080461A1, “Composition Having Antiviral Activity against Flavivirus” (University Malaya, priority 2012, published 2015)
